Legend:
[1] = target: T1, human sphingosine-1-phosphate receptor 1 (S1P1) (Homo sapiens (Human), UniProt P21453); test: Inhibition of cAMP production (HTRF cAMP HiRange), S1P1 CHO-K1 cells; type: cell-based; details: for Emax: CHO-K1, efficacy (SPAN) normalized to fingolimod, read-out: hS1P1 cAMP SPAN; for hS1P1 cAMP pEC50: inhibition of cAMP production, S1P1 CHO-K1 cells
Summary of the method: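 CHO-K1 cells stably co-expressing human S1P1 (C-terminal Prolink tag) and EA-β-arrestin2 were grown in AssayComplete Media 6 at 37° C. and 5% CO2, plated, and incubated overnight. Agonist-driven inhibition of intracellular cAMP was read by TR-FRET with the HTRF cAMP HiRange kit on a PheraStar reader. Potency is pEC50, and efficacy (SPAN) is normalized to fingolimod.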
Target sequence in this assay (P21453 whole entry, looked up): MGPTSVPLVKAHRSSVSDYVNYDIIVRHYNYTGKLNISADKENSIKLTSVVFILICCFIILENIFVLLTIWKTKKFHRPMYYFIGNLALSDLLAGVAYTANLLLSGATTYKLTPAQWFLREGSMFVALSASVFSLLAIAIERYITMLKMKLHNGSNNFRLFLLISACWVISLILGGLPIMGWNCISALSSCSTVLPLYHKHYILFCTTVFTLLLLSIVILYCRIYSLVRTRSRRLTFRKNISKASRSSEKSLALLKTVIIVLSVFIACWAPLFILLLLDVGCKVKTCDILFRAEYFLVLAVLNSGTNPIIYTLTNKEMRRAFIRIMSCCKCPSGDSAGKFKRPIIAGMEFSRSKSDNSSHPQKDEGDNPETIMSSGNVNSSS

[2] = target: T1, human sphingosine-1-phosphate receptor 1 (S1P1); test: β-Arrestin2 recruitment assay (PathHunter), S1P1 CHO-K1 cells; type: cell-based; details: for Emax: CHO-K1, efficacy (SPAN) normalized to fingolimod, read-out: hS1P1 B-arrestin2 SPAN; for hS1P1 B-arrestin2 pEC50: β-arrestin2 recruitment, S1P1 CHO-K1 cells
Summary of the method: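 Enzyme-fragment complementation read-out: agonist-driven β-arrestin2 binding to ProLink-tagged human S1P1 in stable CHO-K1 cells restores β-galactosidase, measured 1 h at room temperature after a 60 min 37° C. compound incubation. Potency as pEC50, efficacy relative to fingolimod (SPAN).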
Target sequence in this assay (P21453 whole entry, looked up): as above
Target sequence in this assay (P32121 whole entry partner, looked up): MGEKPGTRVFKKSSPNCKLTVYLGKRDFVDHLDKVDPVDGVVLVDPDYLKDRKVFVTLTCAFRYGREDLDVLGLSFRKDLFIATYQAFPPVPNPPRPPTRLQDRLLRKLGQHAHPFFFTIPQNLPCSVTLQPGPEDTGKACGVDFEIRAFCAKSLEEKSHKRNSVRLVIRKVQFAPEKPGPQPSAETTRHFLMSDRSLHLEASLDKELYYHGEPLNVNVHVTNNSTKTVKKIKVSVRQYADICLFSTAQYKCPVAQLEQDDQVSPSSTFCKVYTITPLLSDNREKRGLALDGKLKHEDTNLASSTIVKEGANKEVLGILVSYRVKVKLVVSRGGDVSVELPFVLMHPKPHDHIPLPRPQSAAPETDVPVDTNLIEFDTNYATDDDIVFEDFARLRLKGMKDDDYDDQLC

Row | SMILES | Emax [1] [%] | hS1P1 cAMP pEC50 [1] | Emax [2] [%] | hS1P1 B-arrestin2 pEC50 [2]
1 | Cc1cc(C)cc(-c2noc(-c3ccc4c(c3)nnn4C3CCCCC3)n2)c1 [Compound 158, 1-cyclohexyl-5-[3-(3,5-dimethylphenyl)-1,2,4-oxadiazol-5-yl]-1H-1,2,3-benzotriazole] | < 75 | <6.5 | < 75 | <5
2 | CCCn1nnc2cc(-c3nc(-c4ccccc4)no3)ccc21 [Compound 160, 5-(3-phenyl-1,2,4-oxadiazol-5-yl)-1-propyl-1H-1,2,3-benzotriazole] |  | <6.5 |  | <5
3 | COC(=O)CCn1nnc2cc(-c3noc(-c4ccccc4Br)n3)ccc21 [Compound 161, methyl 3-(5-(5-(2-bromophenyl)-1,2,4-oxadiazol-3-yl)-1H-benzo[d][1,2,3]triazol-1-yl)propanoate] |  | <6.5 |  | <5
4 | Cc1ccc(-c2noc(-c3ccc4c(c3)nnn4C3CCCC3)n2)cc1 [Compound 164, 1-cyclopentyl-5-[3-(4-methylphenyl)-1,2,4-oxadiazol-5-yl]-1H-1,2,3-benzotriazole] |  | <6.5 |  | <5
5 | Cc1ccccc1-c1noc(-c2ccc3c(c2)nnn3C2CC2)n1 [Compound 171, 1-cyclopropyl-5-[3-(2-methylphenyl)-1,2,4-oxadiazol-5-yl]-1H-1,2,3-benzotriazole] |  | >6.5 |  | >5
6 | COc1ccccc1-c1noc(-c2ccc3c(c2)nnn3C2CC2)n1 [Compound 173, 1-cyclopropyl-5-[3-(2-methoxyphenyl)-1,2,4-oxadiazol-5-yl]-1H-1,2,3-benzotriazole] | > 75 | >6.5 | > 75 | >5
7 | c1cc(-c2noc(-c3ccc4c(c3)nnn4C3CCCC3)n2)ccn1 [Compound 174, 1-cyclopentyl-5-[3-(pyridin-4-yl)-1,2,4-oxadiazol-5-yl]-1H-1,2,3-benzotriazole] | > 75 | >6.5 | > 75 | <5
8 | Cc1ccccc1-c1noc(-c2ccc3c(c2)nnn3C2CCCC2)n1 [Compound 175, 1-cyclopentyl-5-[3-(2-methylphenyl)-1,2,4-oxadiazol-5-yl]-1H-1,2,3-benzotriazole] | > 75 | >6.5 | > 75 | >5
9 | O=C1CC2(CCCC2)Oc2ccc(-c3nc(-c4ccncc4)no3)cc21 [Compound 176, 6-[3-(pyridin-4-yl)-1,2,4-oxadiazol-5-yl]-3,4-dihydrospiro[1-benzopyran-2,1′-cyclopentane]-4-one] | > 75 | <6.5 | < 75 | <5
10 | CCC1(CC)CC(=O)c2cc(-c3nnc(-c4ccccc4OC)s3)ccc2O1 [Compound 178, 2,2-diethyl-6-(5-(2-methoxyphenyl)-1,3,4-thiadiazol-2-yl)chroman-4-one] | > 75 | <6.5 | < 75 | >5
11 | CC(C)n1nnc2cc(C(=O)Nc3noc4ccccc34)ccc21 [Compound 181, N-(benzo[d]isoxazol-3-yl)-1-isopropyl-1H-benzo[d][1,2,3]triazole-5-carboxamide] | > 75 | <6.5 | > 75 | <5
12 | Cc1ccccc1-c1noc(-c2ccc3c(c2)nnn3CC(F)F)n1 [Compound 182, 1-(2,2-difluoroethyl)-5-[3-(2-methylphenyl)-1,2,4-oxadiazol-5-yl]-1H-1,2,3-benzotriazole] | > 75 | >6.5 | < 75 | >5
13 | COc1ccccc1-c1cnc(-c2ccc3c(c2)nnn3C(C)C)s1 [Compound 184, 2-(1-isopropyl-1H-benzo[d][1,2,3]triazol-5-yl)-5-(2-methoxyphenyl)thiazole] |  | <6.5 |  | <5
14 | COCC1(COC)CC(=O)c2cc(-c3nc(-c4cccnc4)no3)ccc2O1 [Compound 186, 2,2-bis(methoxymethyl)-6-[3-(pyridin-3-yl)-1,2,4-oxadiazol-5-yl]-3,4-dihydro-2H-1-benzopyran-4-one] | < 75 | <6.5 | < 75 | <5
15 | CCC1(CC)CC(=O)c2cc(-c3nc(-c4ccccc4O)no3)ccc2O1 [Compound 187, 2,2-diethyl-6-[3-(2-hydroxyphenyl)-1,2,4-oxadiazol-5-yl]chroman-4-one] | < 75 | <6.5 | > 75 | <5
16 | CCCCC1(CCCC)CC(=O)c2cc(-c3nc(-c4cccnc4)no3)ccc2O1 [Compound 188, 2,2-dibutyl-6-[3-(pyridin-3-yl)-1,2,4-oxadiazol-5-yl]-3,4-dihydro-2H-1-benzopyran-4-one] | < 75 | <6.5 | < 75 | <5
17 | C=CCNc1ccc(-c2nc(-c3ccc4[nH]c(=O)oc4c3)no2)cc1C#N [Compound 189, 2-(allylamino)-5-(3-(2-oxo-2,3-dihydrobenzo[d]oxazol-6-yl)-1,2,4-oxadiazol-5-yl)benzonitrile] |  | >6.5 |  | >5
18 | Brc1ccccc1-c1noc(-c2ccc3[nH]nnc3c2)n1 [Compound 190, 5-[3-(2-bromophenyl)-1,2,4-oxadiazol-5-yl]-1H-1,2,3-benzotriazole] | < 75 | <6.5 | < 75 | <5

The next lines start with the values.

Row | Emax [1] [%] | hS1P1 cAMP pEC50 [1] | Emax [2] [%] | hS1P1 B-arrestin2 pEC50 [2] | SMILES
19 | > 75 | >6.5 | > 75 | >5 | Cc1cc(-c2nc(-c3ccc4c(c3)nnn4C(C)C)no2)cc(C)n1 [Compound 156, 5-(2,6-dimethylpyridin-4-yl)-3-(1-isopropyl-1H-benzo[d][1,2,3]triazol-5-yl)-1,2,4-oxadiazole]
20 |  | <6.5 |  | <5 | Cc1cnc(-c2noc(-c3ccc4c(c3)nnn4C(C)C)n2)cn1 [Compound 157, 5-[3-(5-methylpyrazin-2-yl)-1,2,4-oxadiazol-5-yl]-1-(propan-2-yl)-1H-1,2,3-benzotriazole]
21 |  | <6.5 |  | <5 | Cc1cncc(-c2nc(-c3ccc4c(c3)nnn4C(C)C)no2)c1 [Compound 159, 3-(1-isopropyl-1H-benzo[d][1,2,3]triazol-5-yl)-5-(5-methylpyridin-3-yl)-1,2,4-oxadiazole]
22 |  | <6.5 |  | >5 | Cc1ccccc1-c1nc(-c2ccc3c(c2)nnn3C2CCCC2)no1 [Compound 162, 3-(1-cyclopentyl-1H-benzo[d][1,2,3]triazol-5-yl)-5-(o-tolyl)-1,2,4-oxadiazole]
23 | > 75 |  | > 75 |  | CC(C)n1nnc2cc(-c3nc(-c4ccccc4Cl)co3)ccc21 [Compound 163]
24 |  | <6.5 |  | <5 | CC(C)n1nnc2cc(-c3nc(-c4cccnc4)no3)ccc21 [Compound 165, 1-(propan-2-yl)-5-[3-(pyridin-3-yl)-1,2,4-oxadiazol-5-yl]-1H-1,2,3-benzotriazole]
25 |  | <6.5 |  | <5 | Cc1ccc(-c2nc(-c3ccc4c(c3)nnn4C(C)C)no2)c(C)c1 [Compound 166, 5-(2,4-dimethylphenyl)-3-(1-isopropyl-1H-benzo[d][1,2,3]triazol-5-yl)-1,2,4-oxadiazole]
26 |  | <6.5 |  | <5 | CC(C)c1cc(-c2nc(-c3ccc4c(c3)nnn4C(C)C)no2)ccn1 [Compound 167, 3-(1-isopropyl-1H-benzo[d][1,2,3]triazol-5-yl)-5-(2-isopropylpyridin-4-yl)-1,2,4-oxadiazole]
27 | < 75 | <6.5 | < 75 | <5 | CC(C)n1nnc2cc(-c3nc(-c4ccc5ccccc5n4)no3)ccc21 [Compound 168, 2-{5-[1-(propan-2-yl)-1H-1,2,3-benzotriazol-5-yl]-1,2,4-oxadiazol-3-yl}quinoline]
28 | < 75 | <6.5 | < 75 | <5 | CC(C)n1nnc2cc(-c3nc(-c4ccc(Cl)s4)no3)ccc21 [Compound 170, 5-[3-(5-chlorothiophen-2-yl)-1,2,4-oxadiazol-5-yl]-1-(propan-2-yl)-1H-1,2,3-benzotriazole]
29 | < 75 | <6.5 | < 75 | <5 | Cc1ccccc1C(C)c1noc(-c2ccc3c(c2)nnn3C(C)C)n1 (stereo not drawn) [Compound 172, 5-{3-[1-(2-methylphenyl)ethyl]-1,2,4-oxadiazol-5-yl}-1-(propan-2-yl)-1H-1,2,3-benzotriazole]
30 |  | <6.5 |  | <5 | CC(C)n1nnc2cc(-c3nc(-c4ccccc4O)no3)ccc21 [Compound 180, 2-(5-(1-isopropyl-1H-benzo[d][1,2,3]triazol-5-yl)-1,2,4-oxadiazol-3-yl)phenol]
31 | > 75 | >6.5 | > 75 | >5 | CC(C)n1nnc2cc(-c3nc(-c4ccccc4Br)co3)ccc21 [Compound 183, 5-[4-(2-bromophenyl)-1,3-oxazol-2-yl]-1-(propan-2-yl)-1H-1,2,3-benzotriazole]

Reference: patent publication US11912693B2, “Compounds for modulating S1P1 activity and methods of using the same” (TREVENA, INC., priority 2017, dated 2024)
